Entries after “also recorded” stand apart in the source; their conditions may differ.
System: Leukemia L1210
Experiment: Therapeutic activity against leukemia L1210 implanted i.p. in mice
Format: in vivo
Excerpt: Inhibition of DNA polymerase is considered to be responsible for the biologic activity of AraA. The levels of F-AraATP attainable in leukemia L1210 cells in mice from the administration of 2-F-AraA are much higher than the level of AraATP atainable in these cells after administration of AraA. As a result of the maintenance of these levels of the inhibitor, F-AraATP, in them, the leukemia cells are effectively destroyed in animals. […] 2-F-AraA was also active against leukemia L1210 when administered by the oral route.
^a 10^5 L1210 ascites cells implanted i.p. on day 0.
^b Treatments reported were selected from a range of dose levels from
lethally toxic to apparently nontoxic.
more than 16% (1/6 treated mice) dying without gross evidence of
progressive leukemia (splenomegaly), except those treated orally, in whic
^c i.p. = intraperitoneal; oral = drug administered directly into
^d % ILS = % increase in life span, compared to untreated control;
excluding 60day survivors.
^e Based on median day of death in dying animals only. Figures in
parentheses based on % survivors.
2-F-AraA was given i.p. or orally on the basis of average mouse body weight. Therapeutic activity based on observed increase in median life span of treated animals over untreated controls and on estimates of the number of viable L1210 cells present at the end of treatment is summarized in Table 2.

[1] = Expt. 1, 100 mg/kg/dose q3h × 8, days 1,5,9, i.p.
[2] = Expt. 2, 100 mg/kg/dose q6h × 4, days 1,5,9, i.p.
[3] = Expt. 2, 150 mg/kg/dose q3h × 8, days 1,5,9, oral
[4] = Expt. 2, 400 mg/kg/dose q12h × 2, days 1,5,9, i.p.
[5] = second line of the same regimen: 100 mg/kg/dose q3h × 8, days 1,5,9, i.p.

Compound: Nc1nc(F)nc2c1ncn2[C@@H]1O[C@H](CO)[C@@H](O)[C@@H]1O [2-F-AraA, 9-β-D-arabinofuranosyl-2-fluoroadenine]
- increase in life span of animals dying of leukemia (100 mg/kg i.p. once every three hours on days 1, 5, 9, 10^5 cells, 4 of 6 animals): 123-155%
- animals deemed recovered from the disease (100 mg/kg i.p. once every three hours on days 1, 5, 9, of 6 animals): two
- therapeutic result compared with the 100 mg/kg q3h regimen (400 mg/kg twice a day on days 1, 5, 9): Comparable results
- therapeutic activity against L1210 leukemia (2-F-AraA alone, BDFl mice, 10^5 cells i.p.): reproducible therapeutic activity; also recorded: therapeutically effective
- 60-Day Survivors [1]: 2/6
- Estimated No. L1210 Cells Surviving Therapy (based on median day of death) [1]: 4 × 10^4
- Estimated No. L1210 Cells Surviving Therapy (in parentheses, based on % survivors) [1]: 1.1
- Median % ILS [1]: 123%
- Median Day of Death (Dying Mice Only), Treated (Expt. 1, 100 mg/kg/dose q3h × 8, days 1,5,9, i.p., control 8.5): 19
- 60-Day Survivors [2]: 0/6
- Estimated No. L1210 Cells Surviving Therapy (based on median day of death) [2]: 3 × 10^6
- Median % ILS [2]: 83%
- Median Day of Death (Dying Mice Only), Treated (Expt. 2, 100 mg/kg/dose q6h × 4, days 1,5,9, i.p., control 9): 16.5
- Estimated No. L1210 Cells Surviving Therapy (based on median day of death) [3]: 2 × 10^7
- Median % ILS [3]: 66%
- Median Day of Death (Dying Mice Only), Treated (Expt. 2, 150 mg/kg/dose q3h × 8, days 1,5,9, oral, control 9): 15
- 60-Day Survivors [4]: 1/6
- Estimated No. L1210 Cells Surviving Therapy (based on median day of death) [4]: 2 × 10^3
- Estimated No. L1210 Cells Surviving Therapy (in parentheses, based on % survivors) [4]: 1.8
- Median % ILS [4]: 144%
- Median Day of Death (Dying Mice Only), Treated (Expt. 2, 400 mg/kg/dose q12h × 2, days 1,5,9, i.p., control 9): 22
- treated mice dying without gross evidence of progressive leukemia (splenomegaly) (i.p. treatments reported in Table 2 (1/6 treated mice)): ≤ 16%
- toxicity over the dose range tested (mice treated orally): no toxic levels
- activity against leukemia L1210 (oral route): some therapeutic activity; also recorded: active
- 60-Day Survivors [5]: 1/6
- Estimated No. L1210 Cells Surviving Therapy (based on median day of death) [5]: 5 × 10^2
- Estimated No. L1210 Cells Surviving Therapy (in parentheses, based on % survivors) [5]: 1.8
- Median % ILS [5]: 155%
- Median Day of Death (Dying Mice Only), Treated (second line of the same regimen: 100 mg/kg/dose q3h × 8, days 1,5,9, i.p., control 9): 23
